Assay results reported in ChEMBL document CHEMBL2074318, “Expression, transport properties, and chromosomal location of organic anion transporter subtype 3” (Am J Physiol Gastrointest Liver Physiol, 2000).

T1: Solute carrier organic anion transporter family member 1A5 (Rattus norvegicus, UniProt O88397)
T1 sequence (O88397 whole entry): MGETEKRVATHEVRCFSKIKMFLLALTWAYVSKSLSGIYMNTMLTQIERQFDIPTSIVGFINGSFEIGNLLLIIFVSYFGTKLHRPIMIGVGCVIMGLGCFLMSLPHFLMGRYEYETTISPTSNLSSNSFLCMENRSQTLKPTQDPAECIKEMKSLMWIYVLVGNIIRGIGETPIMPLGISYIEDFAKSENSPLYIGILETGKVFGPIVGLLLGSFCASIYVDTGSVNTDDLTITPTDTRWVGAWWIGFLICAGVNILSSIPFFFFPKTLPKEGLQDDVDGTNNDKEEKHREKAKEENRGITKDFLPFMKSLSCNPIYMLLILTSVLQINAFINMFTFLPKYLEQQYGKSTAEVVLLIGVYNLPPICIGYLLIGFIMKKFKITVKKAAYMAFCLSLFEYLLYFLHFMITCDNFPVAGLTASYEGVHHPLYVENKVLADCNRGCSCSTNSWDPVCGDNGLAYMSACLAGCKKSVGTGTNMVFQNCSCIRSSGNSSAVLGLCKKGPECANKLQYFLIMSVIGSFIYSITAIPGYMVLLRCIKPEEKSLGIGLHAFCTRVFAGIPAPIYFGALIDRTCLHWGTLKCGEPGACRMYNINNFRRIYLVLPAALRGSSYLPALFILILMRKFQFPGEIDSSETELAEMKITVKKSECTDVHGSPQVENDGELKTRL

T2: Ileal sodium/bile acid cotransporter (Rattus norvegicus, UniProt Q62633)
T2 sequence (Q62633 whole entry): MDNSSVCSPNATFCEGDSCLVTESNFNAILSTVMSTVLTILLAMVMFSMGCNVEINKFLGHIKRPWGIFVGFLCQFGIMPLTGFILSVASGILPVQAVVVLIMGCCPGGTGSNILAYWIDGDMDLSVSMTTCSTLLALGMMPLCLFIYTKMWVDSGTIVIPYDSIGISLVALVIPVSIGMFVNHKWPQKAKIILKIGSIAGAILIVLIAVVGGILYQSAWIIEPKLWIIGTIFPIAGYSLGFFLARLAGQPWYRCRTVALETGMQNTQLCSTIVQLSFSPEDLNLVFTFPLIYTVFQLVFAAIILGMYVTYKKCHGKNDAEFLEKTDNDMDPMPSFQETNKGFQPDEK

B1: Solute carrier organic anion transporter family member 1A5 (Rattus norvegicus) (protein)
chain: MGETEKRVATHEVRCFSKIKMFLLALTWAYVSKSLSGIYMNTMLTQIERQFDIPTSIVGFINGSFEIGNLLLIIFVSYFGTKLHRPIMIGVGCVIMGLGCFLMSLPHFLMGRYEYETTISPTSNLSSNSFLCMENRSQTLKPTQDPAECIKEMKSLMWIYVLVGNIIRGIGETPIMPLGISYIEDFAKSENSPLYIGILETGKVFGPIVGLLLGSFCASIYVDTGSVNTDDLTITPTDTRWVGAWWIGFLICAGVNILSSIPFFFFPKTLPKEGLQDDVDGTNNDKEEKHREKAKEENRGITKDFLPFMKSLSCNPIYMLLILTSVLQINAFINMFTFLPKYLEQQYGKSTAEVVLLIGVYNLPPICIGYLLIGFIMKKFKITVKKAAYMAFCLSLFEYLLYFLHFMITCDNFPVAGLTASYEGVHHPLYVENKVLADCNRGCSCSTNSWDPVCGDNGLAYMSACLAGCKKSVGTGTNMVFQNCSCIRSSGNSSAVLGLCKKGPECANKLQYFLIMSVIGSFIYSITAIPGYMVLLRCIKPEEKSLGIGLHAFCTRVFAGIPAPIYFGALIDRTCLHWGTLKCGEPGACRMYNINNFRRIYLVLPAALRGSSYLPALFILILMRKFQFPGEIDSSETELAEMKITVKKSECTDVHGSPQVENDGELKTRL

What was measured:
Format in all cases: functional, cell-based
[1] = target: T1, Solute carrier organic anion transporter family member 1A5; test: TP_TRANSPORTER: inhibition of Taurocholate uptake (Taurocholate: 10 uM, DIDS: 1000 uM) in Oatp3-expressing MDCK cells; conditions: dog
[2] = target: T1, Solute carrier organic anion transporter family member 1A5; test: TP_TRANSPORTER: uptake in Oatp3-expressing COS cells; conditions: monkey
[3] = target: T2, Ileal sodium/bile acid cotransporter; test: TP_TRANSPORTER: uptake in ASBT-expressing COS cells; conditions: monkey
[4] = substrate: C[C@H](CCC(=O)NCC(=O)O)[C@H]1CC[C@H]2[C@@H]3[C@H](O)C[C@@H]4C[C@H](O)CC[C@]4(C)[C@H]3CC[C@]12C; test: (§1) TP_TRANSPORTER: uptake in Oatp3-expressing MDCK cells
[5] = substrate: C[C@H](CCC(=O)NCC(=O)O)[C@H]1CC[C@H]2[C@@H]3CC[C@@H]4C[C@H](O)CC[C@]4(C)[C@H]3C[C@H](O)[C@]12C; test: as §1
[6] = substrate: C[C@H](CCC(=O)NCCS(=O)(=O)O)[C@H]1CC[C@H]2[C@@H]3[C@H](O)C[C@@H]4C[C@H](O)CC[C@]4(C)[C@H]3CC[C@]12C; test: as §1
[7] = substrate: C[C@H](CCC(=O)NCC(=O)O)[C@H]1CC[C@H]2[C@@H]3[C@@H](O)C[C@@H]4C[C@H](O)CC[C@]4(C)[C@H]3CC[C@]12C; test: as §1
[8] = substrate: C[C@H](CCC(=O)NCC(=O)O)[C@H]1CC[C@H]2[C@@H]3[C@H](O)C[C@@H]4C[C@H](O)CC[C@]4(C)[C@H]3C[C@H](O)[C@]12C; test: as §1
[9] = substrate: C[C@H](CCC(=O)NCCS(=O)(=O)O)[C@H]1CC[C@H]2[C@@H]3CC[C@@H]4C[C@H](O)CC[C@]4(C)[C@H]3C[C@H](O)[C@]12C; test: as §1
[10] = substrate: C[C@H](CCC(=O)NCCS(=O)(=O)O)[C@H]1CC[C@H]2[C@@H]3[C@@H](O)C[C@@H]4C[C@H](O)CC[C@]4(C)[C@H]3CC[C@]12C; test: as §1

Molecule | Activity [2] | Activity [3] | further results
O=S(=O)(O)c1cc(N=C=S)ccc1/C=C/c1ccc(NC=S)cc1S(=O)(=O)O |  |  | Activity [1]: inhibitor [(at a rough estimate) 15 % of control]
C[C@H](CCC(=O)NCC(=O)O)[C@H]1CC[C@H]2[C@@H]3[C@H](O)C[C@@H]4C[C@H](O)CC[C@]4(C)[C@H]3CC[C@]12C [GLYCOCHENODEOXYCHOLATE] | substrate [+] | substrate [+] | 
C[C@H](CCC(=O)NCC(=O)O)[C@H]1CC[C@H]2[C@@H]3[C@H](O)C[C@@H]4C[C@H](O)CC[C@]4(C)[C@H]3C[C@H](O)[C@]12C [GLYCOCHOLIC ACID] | substrate [+] | substrate [+] | 
C[C@H](CCC(=O)NCC(=O)O)[C@H]1CC[C@H]2[C@@H]3CC[C@@H]4C[C@H](O)CC[C@]4(C)[C@H]3C[C@H](O)[C@]12C [GLYCODEOXYCHOLATE] | substrate [+] | substrate [+] | 
C[C@H](CCC(=O)NCC(=O)O)[C@H]1CC[C@H]2[C@@H]3[C@@H](O)C[C@@H]4C[C@H](O)CC[C@]4(C)[C@H]3CC[C@]12C [GLYCOURSODEOXYCHOLIC ACID] | substrate [+] | substrate [+] | 
C[C@H](CCC(=O)NCCS(=O)(=O)O)[C@H]1CC[C@H]2[C@@H]3[C@H](O)C[C@@H]4C[C@H](O)CC[C@]4(C)[C@H]3CC[C@]12C [TAUROCHENODEOXYCHOLATE] | substrate [+] | substrate [+] | 
C[C@H](CCC(=O)NCCS(=O)(=O)O)[C@H]1CC[C@H]2[C@@H]3CC[C@@H]4C[C@H](O)CC[C@]4(C)[C@H]3C[C@H](O)[C@]12C [TAURODEOXYCHOLIC ACID] | substrate [+] | substrate [+] | 
C[C@H](CCC(=O)NCCS(=O)(=O)O)[C@H]1CC[C@H]2[C@@H]3[C@@H](O)C[C@@H]4C[C@H](O)CC[C@]4(C)[C@H]3CC[C@]12C [TAURURSODIOL] | substrate [+] | substrate [+] | 
B1 |  |  | Km [4]: 5.6 µM; Km [5]: 4.3 µM; Km [6]: 7 µM; Km [7]: 5.3 µM; Km [8]: 15.4 µM; Km [9]: 5.8 µM; Km [10]: 6.6 µM
